In ChEMBL document CHEMBL1158274, “Antibacterial neoclerodane diterpenoids from Ajuga lupulina” (1996):
Calls of active or inactive are those of the source. No cut-off for these calls is given here.

Key:
Format in all cases: functional
Escherichia coli = assay: Antibacterial activity against Escherichia coli by paper disk diffusion method
Staphylococcus aureus = assay: Antibacterial activity against Staphylococcus aureus by paper disk diffusion method
Pseudomonas aeruginosa = assay: Antibacterial activity against Pseudomonas aeruginosa NJ94 by paper disk diffusion method

SMILES | inhibition zone (IZ) (Escherichia coli) | inhibition zone (IZ) (Staphylococcus aureus) | Activity (Pseudomonas aeruginosa) | Activity (Escherichia coli) | Activity (Staphylococcus aureus) | inhibition zone (IZ) (Pseudomonas aeruginosa)
CC(=O)OC[C@@]12[C@@H](OC(C)=O)C[C@@H](C)[C@](C)([C@@H]3C[C@H]4C[C@H](O)O[C@H]4O3)[C@H]1CCC[C@]21CO1 | 1.2 mm | 1.2 mm | inactive |  |  | 
CO[C@H]1C[C@@H]2C[C@@H]([C@@]3(C)[C@H](C)C[C@H](OC(C)=O)[C@]4(COC(C)=O)[C@@H]3CCC[C@]43CO3)O[C@@H]2O1 |  |  | inactive | inactive | inactive | 
CC[C@@H](C)C(=O)O[C@H]1[C@H](O)C[C@@H]2[C@@](C)([C@@H]3C[C@H]4C[C@@H](OC)O[C@H]4O3)[C@H](C)C[C@H](OC(C)=O)[C@@]2(COC(C)=O)[C@@]12CO2 [LUPULIN A] | 3 mm | 1.5 mm |  |  |  | 3 mm
CC[C@@H](C)C(=O)O[C@H]1CC[C@@H]2[C@@](C)([C@@H]3C[C@H]4C[C@H](OC)O[C@H]4O3)[C@H](C)C[C@H](OC(C)=O)[C@@]2(COC(C)=O)[C@@]12CO2 [LUPULIN B] | 1.2 mm | 1.2 mm | inactive |  |  | 
